These results are taken from publication PMC4337820 (Journal of medicinal chemistry, 2015).

Read-outs that look alike come from different tables or passages of the source.

Data set [1] has as its system T. cruzi, strain Tulahuen C4 amastigotes. Briefly: In vitro activity against T. cruzi amastigotes. The class given is cell-based. Particulars: for antichagasic activity class (TDR criteria): T. cruzi amastigotes; for Bnz/comp: fold potency against T. cruzi relative to Bnz; for SI (IC50 in L6 cells/IC50 in T. cruzi): selectivity index vs L6 cells.
Data set [2] concerns T.b. rhodesiense, strain STIB 900 trypomastigotes. Nature of the data set: In vitro activity against T. b. rhodesiense. Conditions: for anti-HAT activity class (TDR criteria): BSF T. b. rhodesiense. The class given is cell-based.
In data set [3] the test system is L6 cells (rat skeletal myoblasts). Nature of the data set: Cytotoxicity in host L6 cells. The class given is cell-based.
Data set [4] relates to Chagas disease. Conditions: cited from earlier work; for cure rates, chronic stage: adults in the chronic stage.
For data set [5], the system named is Caco-2 cells. Briefly: Caco-2 monolayer permeability. The format is in vitro ADME. Particulars: 10 μM, 2 h.
Data set [6] concerns blood stream form T. b. brucei parasites overexpressing TbNTR. Briefly: Susceptibility of blood stream form T. b. brucei with or without elevated TbNTR. The class given is cell-based.
Data set [7] has as its system transgenic T. cruzi parasites expressing firefly luciferase. Briefly: In vivo antichagasic activity, acute T. cruzi infected murine model. Conditions: i.p., 15 mg/kg/day (compound 5: 13 mg/kg/day).
Data set [8] addresses T1, T. cruzi CYP51 (Trypanosoma cruzi, UniProt Q7Z1V1). Nature of the data set: Reconstituted CYP51 reaction inhibition. The format is biochemical. Particulars: compound 19: at high I/E ratios (≥ 20).
In data set [9] the target is T1, T. cruzi CYP51. Briefly: Spectral titration binding to T. cruzi CYP51. Particulars: TcCYP51 spectral response.
Data set [10] deals with T. cruzi, strain Tulahuen C4 amastigotes. Particulars: cited from earlier work.
For data set [11], the system named is L6 cells (rat skeletal myoblasts). Conditions: read-out: Cytotox. L6 IC-50; host L6 cells; cited from earlier work.
The conditions of data set [12]: polar surface area, predicted; cited from earlier work.
The test system of data set [13] is T.b. rhodesiense, strain STIB 900 trypomastigotes. Particulars: cited from earlier work.
Data set [14] in a line: Caco-2 monolayer permeability. The class given is in vitro ADME. Particulars: human, Caco-2.
Setting [15] is: read-out: T.cruzi IC-50, strain Tulahuen C4 amastigotes.
Setting [16] is: read-out: T.b.rhod. IC-50, strain STIB 900 trypomastigotes.

T1 sequence (Q7Z1V1 whole entry): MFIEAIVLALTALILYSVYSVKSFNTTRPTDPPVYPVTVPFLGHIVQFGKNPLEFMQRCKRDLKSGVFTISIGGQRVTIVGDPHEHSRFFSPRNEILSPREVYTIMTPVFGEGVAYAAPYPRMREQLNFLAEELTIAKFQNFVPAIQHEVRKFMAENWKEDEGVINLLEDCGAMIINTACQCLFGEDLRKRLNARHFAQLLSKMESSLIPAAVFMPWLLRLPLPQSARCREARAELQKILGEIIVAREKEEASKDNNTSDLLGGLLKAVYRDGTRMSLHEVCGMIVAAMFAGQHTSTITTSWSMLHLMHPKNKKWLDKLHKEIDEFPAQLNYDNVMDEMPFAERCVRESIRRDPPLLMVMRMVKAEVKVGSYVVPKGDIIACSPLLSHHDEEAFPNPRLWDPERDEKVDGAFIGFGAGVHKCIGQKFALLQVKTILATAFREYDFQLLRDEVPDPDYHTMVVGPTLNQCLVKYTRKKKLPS

Take “1-(4-phenylphenyl)-2-(1H-1,2,4-triazol-1-yl)ethan-1-one [Compound 11]”: in data set [1], the “antichagasic activity class (TDR criteria)” value (“antichagasic activity class” for short) is on record as “active”, the Bnz/comp stood at 11.9 and the “SI (IC50 in L6 cells/IC50 in T. cruzi)” value is recorded as 1164. Further, the IC50 in data set [1] (setting [15]) is 0.188 µM. Moreover, the IC50 in data set [2] (setting [16]) came out at 1.75 µM. Also, the “SI (IC50 in L6 cells/IC50 in T.b. rhodesiense)” value in [2] (selectivity index vs L6 cells) worked out at 125. For the same molecule, the IC50 in [3] is 220 µM.
For `O=C(Cn1ccnc1[N+](=O)[O-])NCc1ccccc1` [Bnz, N-benzyl-2-(2-nitro-1H-imidazol-1-yl)acetamide], the “cure rates, acute phase” value in data set [4] (acute phase of Chagas disease) is 65-80%. Further, the “cure rates, chronic stage” value in data set [4] is reported as 15-30%.
Regarding `N#Cc1ccc(-c2ccc(NC(=O)Cn3cnc([N+](=O)[O-])n3)cc2)cc1` [Compound 2, N-[4-(4-cyanophenyl)phenyl]-2-(3-nitro-1H-1,2,4-triazol-1-yl)acetamide], in [1], the Bnz/comp is on record as 10.77. Also, the “Caco 2 permeability ranking” value in data set [5] is given as “high”. Besides, in [6], the “fold more susceptible, TbNTR-overexpressing vs non-induced parasites” value is on record as 2 to 3 fold. In data set [7], the “parasite levels after 5 days of treatment” value is on record as “undetectable levels”. The “anti-HAT activity class (TDR criteria)” value in [2] is reported as “active”. For the same molecule, the “reversibility of TcCYP51 inhibition” value in data set [8] was “reversible”.
For the molecule `O=C(Cn1cnc([N+](=O)[O-])n1)Nc1nc(-c2ccc(Cl)cc2)cs1` [Compound 3, N-[4-(4-chlorophenyl)-1,3-thiazol-2-yl]-2-(3-nitro-1H-1,2,4-triazol-1-yl)acetamide], in data set [1], the “antichagasic activity class” value was “active” and the Bnz/comp worked out at 7.24.
`O=C(Cn1cnc([N+](=O)[O-])n1)Nc1nnc(-c2ccc(Cl)cc2)s1` [Compound 4, N-[5-(4-chlorophenyl)-1,3,4-thiadiazol-2-yl]-2-(3-nitro-1H-1,2,4-triazol-1-yl) acetamide]: in [1], the Bnz/comp was determined as 0.04. The “anti-HAT activity class (TDR criteria)” value in data set [2] is given as “did not show any anti-HAT activity”.
Turning to `O=C(Cn1cnc([N+](=O)[O-])n1)Nc1ccc(-c2ccc(Cl)cc2)cc1` [Compound 5, N-(4′-chloro-[1,1′-biphenyl]-4-yl)-2-(3-nitro-1H-1,2,4-triazol-1-yl)acetamide], the “factor of increased efficacy against T. cruzi compared to analog 2” value in [1] is reported as 3 fold. Also, in [7], the “parasite levels after 5 days of treatment” value is listed as “undetectable levels”.
In the case of `O=C(Cn1cnc([N+](=O)[O-])n1)Nc1nc(-c2ccc(F)c(F)c2)cs1` [Compound 6, N-(4-(3,4-difluorophenyl)thiazol-2-yl)-2-(3-nitro-1H-1,2,4-triazol-1-yl)acetamide], in data set [1], the “antichagasic activity class” value was “active” and the Bnz/comp is recorded as 4.42. In addition, the “anti-HAT activity class (TDR criteria)” value in [2] is “inactive”.
For `O=C(Cn1ccnc1[N+](=O)[O-])Nc1nc(-c2ccc(F)c(F)c2)cs1` [Compound 7, N-(4-(3,4-difluorophenyl)thiazol-2-yl)-2-(2-nitro-1H-imidazol-1-yl)acetamide], in data set [1], the “fold less active against T. cruzi compared to 6” value was “about 8.7 fold”, the “antichagasic activity class” value is “borderline active” and the Bnz/comp came to 0.51. The “anti-HAT activity class (TDR criteria)” value in data set [2] was “inactive”.
Consider `Cc1nc(-c2cccc(NC(=O)Cn3cnc([N+](=O)[O-])n3)c2)cs1` [Compound 8, N-(3-(2-methylthiazol-4-yl)phenyl)-2-(3-nitro-1H-1,2,4-triazol-1-yl)acetamide], for which, in data set [1], the “antichagasic activity class” value was “active” and the Bnz/comp was determined as 3.67.
Turning to `O=C(Cn1cnc([N+](=O)[O-])n1)Nc1ccc(N2CCCCC2)cc1` [Compound 9, 2-(3-nitro-1H-1,2,4-triazol-1-yl)-N-(4-(piperidin-1-yl)phenyl)acetamide], in data set [1], the “antichagasic activity class” value is on record as “active” and the Bnz/comp came to 3.66. The “anti-HAT activity class (TDR criteria)” value in data set [2] was “inactive”.
In the case of `O=C(Cn1cnc([N+](=O)[O-])n1)c1ccc(F)cc1F` [Compound 10, 1-(2,4-difluorophenyl)-2-(3-nitro-1H-1,2,4-triazol-1-yl)ethan-1-one], in [1], the “antichagasic activity class” value is recorded as “active” and the Bnz/comp amounted to 1.29.
For `CC(O)(Cn1cnc([N+](=O)[O-])n1)c1ccc(-n2ccnc2)cc1` (stereo not shown) [Compound 14, 2-[4-(1H-imidazol-1-yl)phenyl]-1-(3-nitro-1H-1,2,4-triazol-1-yl)propan-2-ol], in data set [1], the “fold less potent against T. cruzi than 17” value was found to be 32 fold, the “antichagasic activity class” value is recorded as “active” and the Bnz/comp was 0.68.
`CC(O)(Cn1cncn1)c1ccc(-n2ccnc2)cc1` (stereo not shown) [Compound 15, 2-[4-(1H-imidazol-1-yl)phenyl]-1-(1H-1,2,4-triazol-1-yl)propan-2-ol]: the “anti-HAT activity class (TDR criteria)” value in [2] is “inactive”.
With `CC(O)(Cn1cncn1)c1ccc(-c2ccccc2)cc1` (stereo not shown) [Compound 16, 2-(4-phenylphenyl)-1-(1H-1,2,4-triazol-1-yl)propan-2-ol], in data set [1], the “fold less potent against T. cruzi than 17” value worked out at 7 fold, the “antichagasic activity class” value is “active” and the Bnz/comp came out at 3.17. Further, the “anti-HAT activity class (TDR criteria)” value in data set [2] is “inactive”.
In data set [1], `CC(O)(Cn1cnc([N+](=O)[O-])n1)c1ccc(-c2ccccc2)cc1` (stereo not shown) [Compound 17, 1-(3-nitro-1H-1,2,4-triazol-1-yl)-2-(4-phenylphenyl)propan-2-ol] came in with a Bnz/comp of 21.94.
As to `O=[N+]([O-])c1ncn(CC(O)(Cn2cncn2)c2ccc(F)cc2F)n1` (stereo not shown) [Compound 18, 2-(2,4-difluorophenyl)-1-(3-nitro-1H-1,2,4-triazol-1-yl)-3-(1H-1,2,4-triazol-1-yl)-propan-2-ol], in data set [1], the “fold less potent against T. cruzi than 19” value amounted to 36 fold, the “fold more potent against T. cruzi than fluconazole” value was found to be 8.5 fold and the Bnz/comp is 1.81.
With `O=[N+]([O-])c1ncn(CC(O)(Cn2cncn2)c2ccc(-c3ccccc3)cc2)n1` (stereo not shown) [Compound 19, 1-(3-nitro-1H-1,2,4-triazol-1-yl)-2-(4-phenylphenyl)-3-(1H-1,2,4-triazol-1-yl)propan-2-ol], in data set [9], the “apparent Kd, fold stronger than fluconazole” value is 10 fold. Further, in data set [5], the “Caco 2 permeability ranking” value was “high”. Also, the “reversibility of TcCYP51 inhibition” value in data set [8] is listed as “irreversible”.
Regarding `Fc1ccc(C2(Cn3cncn3)Cn3ccnc3O2)c(F)c1` (stereo not shown) [Compound 20, 1-{[2-(2,4-difluorophenyl)-2H,3H-imidazo[2,1-b][1,3]oxazol-2-yl]methyl}-1H-1,2,4-triazole], in data set [1], the “fold less potent against T. cruzi than 18” value was “about 5 fold”, the Bnz/comp was determined as 0.35 and the “SI (IC50 in L6 cells/IC50 in T. cruzi)” value is recorded as more than 49.4.
For `Cc1ccc(S(=O)(=O)NC(Cc2ccccc2)Cn2cnc([N+](=O)[O-])n2)cc1` (stereo not shown) [Compound 21, 4-Methyl-N-[1-(3-nitro-1H-1,2,4-triazol-1-yl)-3-phenylpropan-2-yl]benzene-1-sulfonamide], in data set [1], the “fold less potent against T. cruzi than 17” value is reported as “about 3 fold”, the “antichagasic activity class” value was “active” and the Bnz/comp worked out at 1.7.
As to `O=[N+]([O-])c1ncn(CCCNS(=O)(=O)c2ccc(Cl)s2)n1` [Compound 23], the Bnz/comp in data set [10] (fold potency against T. cruzi relative to Bnz) is 3.6. Besides, the IC50 in [10] (setting [15]) was 0.438 µM; in [11] it was 244 µM; in data set [13] (setting [16]), 1.99 µM. For the same molecule, the “SI (IC50 in L6 cells/IC50 in T. cruzi)” value in [10] (selectivity index vs L6 cells) is on record as 556. Also, the PSA in data set [12] is listed as 122.7 Å^2. Further, the “SI (IC50 in L6 cells/IC50 in T.b. rhodesiense)” value in data set [13] (selectivity index vs L6 cells) is 122.
With `Nc1nc(N)nc(Nc2ccc([As]3SCC(CO)S3)cc2)n1` (stereo not shown) [Melars., Melarsoprol, reference compound], the IC50 in data set [2] (Trypanosoma brucei, RHODESIENSE|STIB900, read-out: T.b.rhod. IC-50) was 0.007 ± 0.001 µM.
In the case of `CC1CS(=O)(=O)CCN1/N=C/c1ccc([N+](=O)[O-])o1` (stereo not shown) [Nfx, 4-(5-nitrofurfurylindenamino)-3-methylthio-morpholine-1,1-dioxide], the “cure rates, chronic stage” value in data set [4] is 15-30%.
Consider `CNC(=C[N+](=O)[O-])NCCSCc1ccc(CN(C)C)o1` [Ranitidine, reference compound], for which the Papp A→B at 2 h, 10 µM in data set [14] was determined as 0.24 ×10⁻⁶ cm/s.
`CC[C@@H]([C@H](C)O)n1ncn(-c2ccc(N3CCN(c4ccc(OC[C@@H]5CO[C@@](Cn6cncn6)(c6ccc(F)cc6F)C5)cc4)CC3)cc2)c1=O` [posaconazole]: in [4] (clinical trials, human patients with chronic Chagas disease), the treatment failure is on record as approximately 80%.
